# Tested on: EpiDerm Full Thickness 400 (EFT-400) tissues
# Experiment: Mattek full-thickness skin model (EFT-400) skin thickness
# Format: cell-based
# Conditions: 14 days; average over the three corticosteroids (100 nM dexamethasone, 50 nM betamethasone, 10 nM Clobetasol); p<0.001
# Method: Following the protocol of Schoepe, we used the FTSM model to determine if co-treatment with Mitocreatine would reduce the loss in skin thickness produced by glucocorticoids.
# 2.5 mL of EpiDerm Full Thickness 400 (EFT-400) medium was dispensed into each well of the four 6-well plates aseptically in the tissue culture hood. The plates containing the EFT-400 tissues were removed from their plastic packaging and transferred using sterile forceps into the 6-well plates containing the 2.5 mL of EFT-400 media, making sure that no agarose adheres to the insert and that the media makes full contact with the underside of the tissue insert membrane (no air bubbles under the insert). The apical surface of the tissue should remain exposed to air (no media should be added to the side of the insert).
# The tissues were equilibrated overnight at 37° C., 5% CO2. Treatment conditions are listed below in Table 5.
# Day 2-13: The plates were visually examined and the media containing the test compounds was replenished each day.
# Day 15: The inserts were dislodged from the support and the tissue carefully removed from the support with a scalpel.
# The tissues were placed in 50 mL conical tubes containing 10% phosphate buffered formalin and sent for sectioning, histological processing and H&E staining Slides were visualized using a Leica Stereoscope equipped with a digital camera. Images were acquired and measured using ExoLabs software. Data was tabulated in Excel and the results were analyzed.
row,reduction in skin thickness (FTSM) [%],Compound
1,26,C[C@H]1C[C@H]2[C@@H]3CCC4=CC(=O)C=C[C@]4(C)[C@@]3(F)[C@@H](O)C[C@]2(C)[C@@]1(O)C(=O)CO [betamethasone]
2,26,C[C@@H]1C[C@H]2[C@@H]3CCC4=CC(=O)C=C[C@]4(C)[C@@]3(F)[C@@H](O)C[C@]2(C)[C@@]1(O)C(=O)CO [dexamethasone]

row,Compound,reduction in skin thickness (FTSM) [%]
1,C[C@H]1C[C@H]2[C@@H]3CCC4=CC(=O)C=C[C@]4(C)[C@@]3(F)[C@@H](O)C[C@]2(C)[C@@]1(O)C(=O)CCl [Clobetasol],26
